The structures appear in SMILES notation. Numbering of substitutions follows the chain as printed.

The target of experiment [1] is T1, mCOX-2^V349A (Mus musculus, UniProt Q05769, V335A).
T1 construct: made in house; host or cells: Sf9 insect cells (baculovirus, pVL1393)
T1 sequence (Q05769 18-604 V335A): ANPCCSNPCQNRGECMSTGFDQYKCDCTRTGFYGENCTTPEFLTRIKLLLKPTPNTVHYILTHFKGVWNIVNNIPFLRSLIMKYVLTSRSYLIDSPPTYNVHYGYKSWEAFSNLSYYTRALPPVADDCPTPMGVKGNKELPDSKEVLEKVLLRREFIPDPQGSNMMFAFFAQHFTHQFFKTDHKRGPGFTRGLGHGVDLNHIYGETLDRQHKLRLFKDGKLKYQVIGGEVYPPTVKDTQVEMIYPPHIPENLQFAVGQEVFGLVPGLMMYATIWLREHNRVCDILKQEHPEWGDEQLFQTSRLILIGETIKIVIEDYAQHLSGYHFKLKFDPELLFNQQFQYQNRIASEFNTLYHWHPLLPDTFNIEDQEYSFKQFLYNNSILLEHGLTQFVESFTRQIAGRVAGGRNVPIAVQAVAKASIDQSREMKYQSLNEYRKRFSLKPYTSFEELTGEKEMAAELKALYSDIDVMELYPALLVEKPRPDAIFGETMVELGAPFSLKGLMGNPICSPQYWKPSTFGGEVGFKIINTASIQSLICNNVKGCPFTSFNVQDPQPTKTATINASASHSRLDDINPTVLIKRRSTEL
The experiment can be described thus: Steady-state quenching of COX intrinsic fluorescence (apo-protein). The format is binding, murine. How it is done:
(§1) Steady-state measurements were performed at 37° C. in a 3.5 ml fluorescence cuvette with continuous stirring. […] Data were collected over 240 or 360 seconds with 2-second integration times. The reversibility of quenching was analyzed in the same manner, with subsequent addition of 50 μM AA as competitor. The ligands were dissolved in DMSO before further dilution into buffer. The organic component in the buffer was below 0.4%.
(§2) This assay provided a method to directly monitor the binding of INDO and DM-INDO to COXs. Various concentrations of INDO and DM-INDO were added to apo-proteins and the rate of fluorescence decrease was monitored over time. After the mixture reached equilibrium, 50 μM of AA was added as competitor to monitor the reversibility of binding. The kinetic data for quenching were analyzed in the same manner as those for inhibition. For clarity, the equilibrium constant for the first step of fluorescence quenching is referred to as Kd, and k2 and k−2 from the second step of quenching are represented by k′2 and k′−2, respectively.

Experiment [2] has as its target T2, mCOX-2^V349I (Mus musculus, UniProt Q05769, V335I).
T2 construct: made in house; host or cells: Sf9 insect cells (baculovirus, pVL1393)
T2 sequence (Q05769 18-604 V335I): T1 sequence (Q05769 18-604 V335A) with A318I
Described as above. The format is binding, murine. How it is done: as §1, §2

For experiment [3], the target named is T3, mCOX-2^V349L (Mus musculus, UniProt Q05769, V335L).
T3 construct: made in house; host or cells: Sf9 insect cells (baculovirus, pVL1393)
T3 sequence (Q05769 18-604 V335L): T1 sequence (Q05769 18-604 V335A) with A318L
The experiment is described as above. The format is binding, murine. As for the experimental part:
as §1, §2

Experiment [4] concerns the target T3, mCOX-2^V349L. The experiment can be described thus: Kinetics of time-dependent COX inhibition. The format is biochemical, murine. How it is done: Assays were terminated and analyzed for substrate consumption by thin layer chromatography. […] Time-dependent COX inhibition reactions were pre-incubated at 37° C. for varying lengths of time (0-30 minutes) with various concentrations of inhibitor. All reactions were performed with [1-^14C]-AA for 30 seconds at 37° C.; reactions were terminated and analyzed as described above.
To ensure that pseudo-first-order conditions were maintained, the enzymatic oxygenation reactions were terminated after 30 seconds to prevent extensive consumption of substrate. The decline of substrate conversion at different INDO concentrations was plotted against the pre-incubation times and fit to a single exponential decay with a plateau to determine kobs (FIG. 2).
The rate constant k2 represents the limiting forward rate constant for functionally irreversible inhibition, and KI corresponds to the inhibitor concentration that yields a rate equal to half of the limiting rate.

Where [5] appears, read: fluorescence increase from competition with 50 μM AA.

The term Kd denotes a measure of binding affinity in units of concentration. Read a high Kd as a looser complex. Turning to `COc1ccc2c(c1)c(CC(=O)O)cn2C(=O)c1ccc(Cl)cc1` [DM-INDO, 2-Des-methylindomethacin], the “k′−2^b” value in experiment [1] (setting [5]) turned out to be 0.046 ± 0.002 s⁻¹; in experiment [2] (setting [5]), 0.005 ± 0.001 s⁻¹; in experiment [3] (setting [5]) it was 0.006 ± 0.001 s⁻¹. In addition, the results for the Kd in experiment [1] (fluorescence quenching), in experiment [2] (fluorescence quenching) and in experiment [3] (fluorescence quenching) were 1.4 ± 0.3 µM, 12 ± 5 µM and 34 ± 19 µM, respectively. Moreover, the “k′2” value in experiment [1] (fluorescence quenching) worked out at 0.17 ± 0.04 s⁻¹; in experiment [2] (fluorescence quenching), 0.09 ± 0.01 s⁻¹; in experiment [3] (fluorescence quenching), 0.05 ± 0.01 s⁻¹. Moreover, the “k′−2” value in experiment [1] (fluorescence quenching (decay)) is 0.045 ± 0.008 s⁻¹; in experiment [2] (fluorescence quenching (decay)) it was 0.003 ± 0.002 s⁻¹; in experiment [3] (fluorescence quenching (decay)), 0.003 ± 0.002 s⁻¹. In addition, the “remaining activity approached (plateau) in time-dependent inhibition curves” value in experiment [4] (V349L) is “about 30%”. Further, in experiment [4] (V349L versus wild type mCOX-2), the “higher concentrations required for V349L to achieve similar inhibition as wild type mCOX-2” value is reported as roughly 10 fold. Also, in experiment [4] (V349L, graph did not plateau, linear regression), the “k−2 (y-intercept of linear regression analysis)” value amounted to 0.0025 ± 0.0003 s⁻¹.

The values are drawn from patent publication US8168656B2, “Indoleacetic acid and indenacetic acid derivatives as therapeutic agents with reduced gastrointestinal toxicity” (Vanderbilt University, priority 2009, dated 2012).
